Test results from ChEMBL document CHEMBL5352429, “Designed symmetrical β-hairpin peptides for treating multidrug-resistant salmonella typhimurium infections” (Eur J Med Chem, 2022).
≈ marks a conversion by molar mass, not a printed value. Calls of active or inactive are those of the source. The rule behind the calls is not given here. Peptide text beside a SMILES is read from it.

Key:
Staphylococcus aureus [1] = experiment: Antibacterial activity against Staphylococcus aureus ATCC 29213 incubated overnight by standard microtiter dilution method; assay type: functional
Staphylococcus aureus [2] = experiment: Antibacterial activity against methicillin-resistant Staphylococcus aureus ATCC 43300 incubated overnight by standard microtiter dilution method; assay type: functional
[3] = system: Staphylococcus epidermidis; experiment: Antibacterial activity against methicillin-resistant Staphylococcus epidermidis ATCC 12228 incubated overnight by standard microtiter dilution method; assay type: functional
Enterococcus faecalis = experiment: Antibacterial activity against Enterococcus faecalis ATCC 29212 incubated overnight by standard microtiter dilution method; assay type: functional
Escherichia coli = experiment: Antibacterial activity against Escherichia coli O157:H7 CICC 21530 incubated overnight by standard microtiter dilution method; assay type: functional
Salmonella paratyphi = experiment: Antibacterial activity against Salmonella paratyphi A CICC 21501 incubated overnight by standard microtiter dilution method; assay type: functional, Salmonella enterica subsp. enterica serovar Paratyphi A; conditions: Salmonella enterica
[4] = system: Salmonella enterica subsp. enterica serovar Paratyphi B; experiment: Antibacterial activity against Salmonella paratyphi B CICC 21495 incubated overnight by standard microtiter dilution method; assay type: functional
[5] = Antibacterial activity against Salmonella paratyphi C CICC 21512 incubated overnight by standard microtiter dilution method; assay type: functional, Salmonella enterica subsp. enterica serovar Paratyphi C; conditions: Salmonella enterica
[6] = Antibacterial activity against Salmonella enterica subsp. enterica serovar Choleraesuis ATCC 13312 incubated overnight by standard microtiter dilution method; assay type: functional
[7] = Antibacterial activity against Salmonella enterica subsp. enterica serovar Choleraesuis CICC 21493 incubated overnight by standard microtiter dilution method; assay type: functional
Salmonella enteritidis = experiment: Antibacterial activity against Salmonella enteritidis CICC 21527 incubated overnight by standard microtiter dilution method; assay type: functional, Salmonella enterica subsp. enterica serovar Enteritidis; conditions: Salmonella enterica
[8] = Antibacterial activity against Salmonella wandsworth CICC 21504 incubated overnight by standard microtiter dilution method; assay type: functional, Salmonella enterica subsp. enterica serovar Wandsworth; conditions: Salmonella enterica
Salmonella typhimurium [9] = experiment: Antibacterial activity against Salmonella typhimurium CICC 21483 incubated overnight by standard microtiter dilution method; assay type: functional, Salmonella enterica subsp. enterica serovar Typhimurium; conditions: Salmonella enterica
Salmonella typhimurium [10] = experiment: Antibacterial activity against Salmonella typhimurium CICC 21913 incubated overnight by standard microtiter dilution method; assay type: functional, Salmonella enterica subsp. enterica serovar Typhimurium; conditions: Salmonella enterica
[11] = Antibacterial activity against Salmonella blockley CICC 21489 incubated overnight by standard microtiter dilution method; assay type: functional, Salmonella enterica subsp. enterica serovar Blockley; conditions: Salmonella enterica
[12] = Antibacterial activity against Salmonella dublin CICC 21497 incubated overnight by standard microtiter dilution method; assay type: functional, Salmonella enterica subsp. enterica serovar Dublin; conditions: Salmonella enterica
Salmonella typhimurium [13] = experiment: Antibacterial activity against Salmonella typhimurium DT104 ATCC 700408 incubated overnight by standard microtiter dilution method; assay type: functional, Salmonella enterica subsp. enterica serovar Typhimurium; conditions: Salmonella enterica
Candida albicans = experiment: Antifungal activity against Candida albicans ATCC 10231 incubated overnight by standard microtiter dilution method; assay type: functional
Erythrocyte = experiment: Hemolytic activity in human Red blood cells assessed as hemolysis incubated for 1 hrs by absorbance based microplate reader analysis; assay type: toxicity, cell-based
Salmonella typhimurium [14] = experiment: Antibacterial activity against Salmonella typhimurium DT104 in the presence of NaCl by MH broth based assay; assay type: functional, Salmonella enterica subsp. enterica serovar Typhimurium; conditions: Salmonella enterica
Salmonella typhimurium [15] = experiment: Antibacterial activity against Salmonella typhimurium DT104 in the presence of KCl by MH broth based assay; assay type: functional, Salmonella enterica subsp. enterica serovar Typhimurium; conditions: Salmonella enterica
Salmonella typhimurium [16] = experiment: Antibacterial activity against Salmonella typhimurium DT104 in the presence of NH4Cl by MH broth based assay; assay type: functional, Salmonella enterica subsp. enterica serovar Typhimurium; conditions: Salmonella enterica
Salmonella typhimurium [17] = experiment: Antibacterial activity against Salmonella typhimurium DT104 in the presence of CaCl2 by MH broth based assay; assay type: functional, Salmonella enterica subsp. enterica serovar Typhimurium; conditions: Salmonella enterica
Salmonella typhimurium [18] = experiment: Antibacterial activity against Salmonella typhimurium DT104 in the presence of MgCl2 by MH broth based assay; assay type: functional, Salmonella enterica subsp. enterica serovar Typhimurium; conditions: Salmonella enterica
Salmonella typhimurium [19] = experiment: Antibacterial activity against Salmonella typhimurium DT104 in the presence of FeCl3 by MH broth based assay; assay type: functional, Salmonella enterica subsp. enterica serovar Typhimurium; conditions: Salmonella enterica
Salmonella typhimurium [20] = experiment: Antibacterial activity against Salmonella typhimurium DT104 in the presence 25% inactivated mouse serum by MH broth based assay; assay type: functional, Salmonella enterica subsp. enterica serovar Typhimurium; conditions: Salmonella enterica
Salmonella typhimurium [21] = experiment: Antibacterial activity against Salmonella typhimurium DT104 in the presence 50% inactivated mouse serum by MH broth based assay; assay type: functional, Salmonella enterica subsp. enterica serovar Typhimurium; conditions: Salmonella enterica
[22] = Hemolytic activity in human Red blood cells assessed as hemolysis at 128 ug/ml incubated for 1 hrs by absorbance based microplate reader analysis relative to control; assay type: toxicity, cell-based, Erythrocyte; conditions: red blood cells (erythrocytes), at 128 µg/mL, read-out: Activity
[23] = Cytotoxicity against mouse RAW264.7 cells assessed as cell viability at 128 ug/ml incubated for 24 hrs by MTT assay; assay type: toxicity, cell-based; conditions: at 128 µg/mL, read-out: Activity
Lipopolysaccharide (LPS) = experiment: Displacement of BODIPY-TR-cadaverine from Salmonella typhimurium LPS assessed as increase in fluorescence intensity by fluorescence spectrophotometric analysis; conditions: Salmonella enterica subsp. enterica serovar Typhimurium; dose 0.25-8 µg/ml
RAW264.7 [24] = experiment: Inhibition of LPS-stimulated NO production in mouse RAW264.7 cells incubated for 24 hrs by Griess reagent based analysis; assay type: functional, cell-based; conditions: dose 1-128 µg/ml
RAW264.7 [25] = experiment: Inhibition of LPS-stimulated TNF-alpha production in mouse RAW264.7 cells at 1 to 128 ug/ml incubated for 24 hrs by ELISA analysis; assay type: functional, cell-based; conditions: dose 1-128 µg/ml
RAW264.7 [26] = experiment: Inhibition of LPS-stimulated IL-1beta production in mouse RAW264.7 cells at 1 to 128 ug/ml incubated for 24 hrs by ELISA analysis; assay type: functional, cell-based; conditions: dose 1-128 µg/ml
RAW264.7 [27] = experiment: Inhibition of LPS-stimulated IL-8 production in mouse RAW264.7 cells at 1 to 128 ug/ml incubated for 24 hrs by ELISA analysis; assay type: functional, cell-based; conditions: dose 1-128 µg/ml
Cell membrane = experiment: Disruption of membrane integrity in Salmonella typhimurium DT104 assessed as increase in fluorescence intensity at 0.5 to 2 times of MIC incubated for 15 mins by PI staining based flow cytometric analysis; assay type: subcellular; conditions: Salmonella enterica subsp. enterica serovar Typhimurium
Salmonella typhimurium [28] = experiment: Antibacterial activity against multi-drug resistant Salmonella typhimurium DT104 assessed as inhibition of bacterial growth at 0.5 to 2 times of MIC by MH agar based serial dilution method; assay type: functional, organism-based; conditions: Salmonella enterica subsp. enterica serovar Typhimurium, time <= 120.0 min, TDE = time-dependent effect
Salmonella typhimurium [29] = experiment: Antibacterial activity against multi-drug resistant Salmonella typhimurium DT104 assessed as inhibition of bacterial growth measured upto 120 mins by MH agar based serial dilution method; assay type: functional, organism-based; conditions: Salmonella enterica subsp. enterica serovar Typhimurium

| SMILES | MIC (Staphylococcus aureus [1]) | MIC (Staphylococcus aureus [2]) | MIC [3] | MIC (Enterococcus faecalis) | MIC (Escherichia coli) | MIC (Salmonella paratyphi) | MIC [4] | MIC [5] | MIC [6] | MIC [7] | MIC (Salmonella enteritidis) | MIC [8] | MIC (Salmonella typhimurium [9]) | MIC (Salmonella typhimurium [10]) | MIC [11] | MIC [12] | MIC (Salmonella typhimurium [13]) | MIC (Candida albicans) | MHC (Erythrocyte) | MIC (Salmonella typhimurium [14]) | further results |
| --- | --- | --- | --- | --- | --- | --- | --- | --- | --- | --- | --- | --- | --- | --- | --- | --- | --- | --- | --- | --- | --- |
| CC(C)[C@H](N)C(=O)N[C@@H](CCCCN)C(=O)N[C@H](C(=O)N[C@@H](CCCCN)C(=O)N[C@H](C(=O)N[C@@H](CCCCN)C(=O)N[C@@H](CS)C(=O)N[C@H](C(=O)N[C@@H](CCCCN)C(=O)N[C@@H](CO)C(=O)NCC(=O)N[C@@H](CS)C(=O)N[C@@H](CCCCN)C(=O)N[C@H](C(=O)N[C@@H](CCCCN)C(=O)N[C@H](C(=O)N[C@@H](CCCCN)C(=O)N[C@H](C(N)=O)C(C)C)C(C)C)C(C)C)[C@@H](C)O)C(C)C)C(C)C (H-VKVKVKCTKSGCKVKVKV-NH2) | > 128 µg/mL | > 128 µg/mL | 4 µg/mL (≈ 2.04 µM) | 4 µg/mL (≈ 2.04 µM) | 2 µg/mL (≈ 1.02 µM) | 2 µg/mL (≈ 1.02 µM) | 1 µg/mL (≈ 0.51 µM) | 2 µg/mL (≈ 1.02 µM) | 0.5 µg/mL (≈ 0.255 µM) | 32 µg/mL (≈ 16.3 µM) | 32 µg/mL (≈ 16.3 µM) | 4 µg/mL (≈ 2.04 µM) | 64 µg/mL (≈ 32.6 µM) | > 128 µg/mL | 16 µg/mL (≈ 8.16 µM) | 4 µg/mL (≈ 2.04 µM) | 32 µg/mL (≈ 16.3 µM) | 8 µg/mL (≈ 4.08 µM) | > 128 µg/mL | > 128 µg/mL | MIC (Salmonella typhimurium [15]): 128 µg/mL; MIC (Salmonella typhimurium [16]): 64 µg/mL; MIC (Salmonella typhimurium [17]): > 128 µg/mL; MIC (Salmonella typhimurium [18]): > 128 µg/mL; MIC (Salmonella typhimurium [19]): 64 µg/mL; MIC (Salmonella typhimurium [20]): > 128 µg/mL; MIC (Salmonella typhimurium [21]): > 128 µg/mL; hemolysis at 1 h, 128 ug/ml [22]: < 10%; viability at 24 h, 128 ug/ml [23]: 39.8%; Activity (Lipopolysaccharide (LPS)): Dose-Dependent Effect; inhibition (RAW264.7 [24]): Dose-Dependent Effect; inhibition (RAW264.7 [25]): Active; inhibition (RAW264.7 [26]): Active; inhibition (RAW264.7 [27]): Active; Activity (Cell membrane): Active |
| CC(C)C[C@H](NC(=O)[C@H](CCCCN)NC(=O)[C@H](CC(C)C)NC(=O)[C@H](CCCCN)NC(=O)[C@H](CC(C)C)NC(=O)[C@H](CCCCN)NC(=O)[C@H](CS)NC(=O)CNC(=O)[C@H](CO)NC(=O)[C@H](CCCCN)NC(=O)[C@@H](NC(=O)[C@H](CS)NC(=O)[C@H](CCCCN)NC(=O)[C@H](CC(C)C)NC(=O)[C@H](CCCCN)NC(=O)[C@H](CC(C)C)NC(=O)[C@H](CCCCN)NC(=O)[C@@H](N)CC(C)C)[C@@H](C)O)C(N)=O (H-LKLKLKCTKSGCKLKLKL-NH2) | > 128 µg/mL | > 128 µg/mL | 32 µg/mL (≈ 15.6 µM) | 64 µg/mL (≈ 31.3 µM) | 8 µg/mL (≈ 3.91 µM) | > 128 µg/mL | 4 µg/mL (≈ 1.96 µM) | 4 µg/mL (≈ 1.96 µM) | 4 µg/mL (≈ 1.96 µM) | 128 µg/mL (≈ 62.6 µM) | 64 µg/mL (≈ 31.3 µM) | 128 µg/mL (≈ 62.6 µM) | 128 µg/mL (≈ 62.6 µM) | > 128 µg/mL | 128 µg/mL (≈ 62.6 µM) | 32 µg/mL (≈ 15.6 µM) | 64 µg/mL (≈ 31.3 µM) | 128 µg/mL (≈ 62.6 µM) | 64 µg/mL | > 128 µg/mL | MIC (Salmonella typhimurium [15]): > 128 µg/mL; MIC (Salmonella typhimurium [16]): > 128 µg/mL; MIC (Salmonella typhimurium [17]): > 128 µg/mL; MIC (Salmonella typhimurium [18]): > 128 µg/mL; MIC (Salmonella typhimurium [19]): > 128 µg/mL; MIC (Salmonella typhimurium [20]): > 128 µg/mL; MIC (Salmonella typhimurium [21]): > 128 µg/mL; hemolysis at 1 h, 128 ug/ml [22]: 16.4%; viability at 24 h, 128 ug/ml [23]: 14.2%; Activity (Salmonella typhimurium [28]): Tde; Activity (Salmonella typhimurium [29]): Dose-Dependent Effect; Activity (Lipopolysaccharide (LPS)): Dose-Dependent Effect; inhibition (RAW264.7 [24]): Dose-Dependent Effect; inhibition (RAW264.7 [25]): Active; inhibition (RAW264.7 [26]): Active; inhibition (RAW264.7 [27]): Active; Activity (Cell membrane): Active |
